Measured values as given in ChEMBL document CHEMBL5653615 (J Biol Chem, 2013).

Key:
[1] = molecular target: Activin receptor type-1-like (Homo sapiens) (UniProt P37023); experiment: Inhibition of human ALK1 at 500 nM by HotSpot assay relative to control
[2] = molecular target: Tyrosine-protein kinase receptor UFO (Homo sapiens) (UniProt P30530); experiment: Inhibition of human AXL at 500 nM by HotSpot assay relative to control
[3] = molecular target: Hepatocyte growth factor receptor (Homo sapiens) (UniProt P08581); experiment: Inhibition of human c-MET at 500 nM by HotSpot assay relative to control
Sequence of Hepatocyte growth factor receptor (Homo sapiens) (P08581 whole entry): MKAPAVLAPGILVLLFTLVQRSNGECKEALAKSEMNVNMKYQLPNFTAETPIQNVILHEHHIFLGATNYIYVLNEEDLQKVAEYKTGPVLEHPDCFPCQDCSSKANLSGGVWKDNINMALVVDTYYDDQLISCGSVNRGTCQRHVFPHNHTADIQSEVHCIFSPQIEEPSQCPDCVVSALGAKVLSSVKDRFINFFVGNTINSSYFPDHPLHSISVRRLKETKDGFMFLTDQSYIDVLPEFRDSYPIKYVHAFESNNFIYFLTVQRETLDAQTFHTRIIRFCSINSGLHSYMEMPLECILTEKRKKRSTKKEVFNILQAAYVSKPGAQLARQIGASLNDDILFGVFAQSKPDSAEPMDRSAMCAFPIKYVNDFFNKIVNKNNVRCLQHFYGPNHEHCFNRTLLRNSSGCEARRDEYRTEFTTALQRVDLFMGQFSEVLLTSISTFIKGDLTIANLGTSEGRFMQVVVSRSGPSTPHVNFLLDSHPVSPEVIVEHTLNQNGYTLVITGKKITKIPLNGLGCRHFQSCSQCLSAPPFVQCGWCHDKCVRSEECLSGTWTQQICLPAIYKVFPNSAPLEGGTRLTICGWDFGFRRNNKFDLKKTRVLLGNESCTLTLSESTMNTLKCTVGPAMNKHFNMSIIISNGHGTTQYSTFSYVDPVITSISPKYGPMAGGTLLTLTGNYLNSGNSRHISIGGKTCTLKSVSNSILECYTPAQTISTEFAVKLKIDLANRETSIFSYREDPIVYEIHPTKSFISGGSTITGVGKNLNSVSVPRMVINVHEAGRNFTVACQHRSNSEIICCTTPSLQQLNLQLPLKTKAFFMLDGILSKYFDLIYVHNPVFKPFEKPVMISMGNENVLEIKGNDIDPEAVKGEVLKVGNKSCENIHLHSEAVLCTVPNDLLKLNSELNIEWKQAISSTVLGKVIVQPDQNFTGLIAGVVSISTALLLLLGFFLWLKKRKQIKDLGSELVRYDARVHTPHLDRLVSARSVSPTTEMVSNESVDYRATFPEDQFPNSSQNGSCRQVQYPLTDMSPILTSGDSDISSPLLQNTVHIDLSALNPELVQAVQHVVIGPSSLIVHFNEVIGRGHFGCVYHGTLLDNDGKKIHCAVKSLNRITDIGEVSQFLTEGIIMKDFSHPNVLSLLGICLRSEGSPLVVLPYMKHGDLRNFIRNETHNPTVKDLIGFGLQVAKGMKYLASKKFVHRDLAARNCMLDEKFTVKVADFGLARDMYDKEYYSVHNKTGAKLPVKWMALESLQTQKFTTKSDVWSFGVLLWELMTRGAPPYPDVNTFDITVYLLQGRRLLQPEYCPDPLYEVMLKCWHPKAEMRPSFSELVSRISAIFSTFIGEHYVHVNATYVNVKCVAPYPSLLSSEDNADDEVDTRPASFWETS

[4] = molecular target: Calcium/calmodulin-dependent protein kinase type II subunit alpha (Homo sapiens) (UniProt Q9UQM7); experiment: Inhibition of human CAMK2a at 500 nM by HotSpot assay relative to control
[5] = molecular target: Cyclin-dependent kinase 2/cyclin E1 (Homo sapiens) (UniProt P24864+P24941); experiment: Inhibition of human CDK2/cyclin E at 500 nM by HotSpot assay relative to control; assay type: protein-complex assay
[6] = molecular target: Cyclin-dependent kinase 5/CDK5 activator 1 (Homo sapiens) (UniProt Q00535+Q15078); experiment: Inhibition of human CDK5/p25 at 500 nM by HotSpot assay relative to control; assay type: protein-complex assay
Sequence of Cyclin-dependent kinase 5/CDK5 activator 1 (Homo sapiens) (Q00535 whole entry): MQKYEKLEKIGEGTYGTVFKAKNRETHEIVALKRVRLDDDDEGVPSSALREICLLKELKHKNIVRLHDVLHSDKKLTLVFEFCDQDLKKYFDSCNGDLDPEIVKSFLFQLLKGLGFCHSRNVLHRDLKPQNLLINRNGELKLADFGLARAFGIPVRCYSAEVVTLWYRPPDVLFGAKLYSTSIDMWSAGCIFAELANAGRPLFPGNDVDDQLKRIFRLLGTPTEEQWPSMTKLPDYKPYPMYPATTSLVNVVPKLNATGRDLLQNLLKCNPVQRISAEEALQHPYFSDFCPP
Sequence of Cyclin-dependent kinase 5/CDK5 activator 1 (Homo sapiens) (Q15078 99-307 partner limits assumed): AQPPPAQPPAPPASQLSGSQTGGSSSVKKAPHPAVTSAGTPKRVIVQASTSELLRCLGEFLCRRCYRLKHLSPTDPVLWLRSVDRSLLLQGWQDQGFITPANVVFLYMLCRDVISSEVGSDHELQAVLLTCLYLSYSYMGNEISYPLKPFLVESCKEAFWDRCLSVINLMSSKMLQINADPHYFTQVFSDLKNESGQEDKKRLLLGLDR

[7] = molecular target: Tyrosine-protein kinase CSK (Homo sapiens) (UniProt P41240); experiment: Inhibition of human CSK at 500 nM by HotSpot assay relative to control
[8] = molecular target: Ephrin type-A receptor 7 (Homo sapiens) (UniProt Q15375); experiment: Inhibition of human EPHA7 at 500 nM by HotSpot assay relative to control
[9] = molecular target: Receptor tyrosine-protein kinase erbB-4 (Homo sapiens) (UniProt Q15303); experiment: Inhibition of human ERBB4 at 500 nM by HotSpot assay relative to control
Sequence of Receptor tyrosine-protein kinase erbB-4 (Homo sapiens) (Q15303 whole entry): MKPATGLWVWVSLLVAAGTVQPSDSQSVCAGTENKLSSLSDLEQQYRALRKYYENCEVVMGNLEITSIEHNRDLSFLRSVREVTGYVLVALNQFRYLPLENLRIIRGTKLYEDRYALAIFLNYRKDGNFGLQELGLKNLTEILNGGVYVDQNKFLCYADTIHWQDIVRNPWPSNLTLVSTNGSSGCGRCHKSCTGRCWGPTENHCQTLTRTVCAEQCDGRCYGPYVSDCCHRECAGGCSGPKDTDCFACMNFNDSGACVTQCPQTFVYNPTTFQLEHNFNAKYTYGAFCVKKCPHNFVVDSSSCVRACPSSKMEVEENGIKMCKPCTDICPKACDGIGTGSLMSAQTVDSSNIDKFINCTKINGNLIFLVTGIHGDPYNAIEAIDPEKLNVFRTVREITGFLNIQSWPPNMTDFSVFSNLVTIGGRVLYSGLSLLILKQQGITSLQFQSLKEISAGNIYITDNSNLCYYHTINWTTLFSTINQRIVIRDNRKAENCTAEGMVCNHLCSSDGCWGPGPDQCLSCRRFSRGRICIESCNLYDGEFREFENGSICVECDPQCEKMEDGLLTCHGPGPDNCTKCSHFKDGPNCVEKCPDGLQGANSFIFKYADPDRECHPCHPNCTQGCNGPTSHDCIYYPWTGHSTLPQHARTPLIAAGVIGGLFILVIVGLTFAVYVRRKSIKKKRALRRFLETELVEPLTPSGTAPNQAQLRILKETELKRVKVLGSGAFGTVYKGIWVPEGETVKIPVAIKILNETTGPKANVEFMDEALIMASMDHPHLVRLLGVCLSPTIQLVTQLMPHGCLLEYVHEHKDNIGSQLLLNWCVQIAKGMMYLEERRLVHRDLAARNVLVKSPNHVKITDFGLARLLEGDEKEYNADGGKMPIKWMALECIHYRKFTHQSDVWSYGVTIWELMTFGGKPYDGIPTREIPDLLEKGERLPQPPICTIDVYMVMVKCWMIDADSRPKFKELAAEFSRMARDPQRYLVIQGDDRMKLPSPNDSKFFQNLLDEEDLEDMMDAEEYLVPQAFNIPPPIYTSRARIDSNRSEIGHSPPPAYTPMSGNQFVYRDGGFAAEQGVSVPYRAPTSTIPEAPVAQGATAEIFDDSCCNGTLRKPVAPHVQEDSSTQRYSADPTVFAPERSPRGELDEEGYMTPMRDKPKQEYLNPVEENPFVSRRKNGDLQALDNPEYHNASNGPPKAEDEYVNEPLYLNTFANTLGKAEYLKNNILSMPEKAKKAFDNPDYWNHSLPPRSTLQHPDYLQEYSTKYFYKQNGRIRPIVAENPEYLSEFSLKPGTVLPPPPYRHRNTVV

[10] = molecular target: Tyrosine-protein kinase Fer (Homo sapiens) (UniProt P16591); experiment: Inhibition of human FER at 500 nM by HotSpot assay relative to control
[11] = molecular target: Mitogen-activated protein kinase 9 (Homo sapiens) (UniProt P45984); experiment: Inhibition of human JNK2 at 500 nM by HotSpot assay relative to control
Sequence of Mitogen-activated protein kinase 9 (Homo sapiens) (P45984 whole entry, looked up): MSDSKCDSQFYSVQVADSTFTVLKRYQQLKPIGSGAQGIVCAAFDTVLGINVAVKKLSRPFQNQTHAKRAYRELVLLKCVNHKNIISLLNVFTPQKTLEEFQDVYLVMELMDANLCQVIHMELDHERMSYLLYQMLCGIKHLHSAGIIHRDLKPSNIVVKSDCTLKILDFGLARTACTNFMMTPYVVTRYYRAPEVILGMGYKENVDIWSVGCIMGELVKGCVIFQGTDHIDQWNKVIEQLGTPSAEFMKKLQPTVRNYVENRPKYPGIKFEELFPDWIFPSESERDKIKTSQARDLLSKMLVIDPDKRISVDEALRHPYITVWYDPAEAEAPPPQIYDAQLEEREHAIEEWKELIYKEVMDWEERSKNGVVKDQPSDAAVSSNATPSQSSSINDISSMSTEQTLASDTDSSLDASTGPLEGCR

[12] = molecular target: T1, Serine/threonine-protein kinase STK11 (Homo sapiens) (UniProt Q15831); experiment: Inhibition of human LKB1 at 500 nM by HotSpot assay relative to control
T1 sequence (whole entry): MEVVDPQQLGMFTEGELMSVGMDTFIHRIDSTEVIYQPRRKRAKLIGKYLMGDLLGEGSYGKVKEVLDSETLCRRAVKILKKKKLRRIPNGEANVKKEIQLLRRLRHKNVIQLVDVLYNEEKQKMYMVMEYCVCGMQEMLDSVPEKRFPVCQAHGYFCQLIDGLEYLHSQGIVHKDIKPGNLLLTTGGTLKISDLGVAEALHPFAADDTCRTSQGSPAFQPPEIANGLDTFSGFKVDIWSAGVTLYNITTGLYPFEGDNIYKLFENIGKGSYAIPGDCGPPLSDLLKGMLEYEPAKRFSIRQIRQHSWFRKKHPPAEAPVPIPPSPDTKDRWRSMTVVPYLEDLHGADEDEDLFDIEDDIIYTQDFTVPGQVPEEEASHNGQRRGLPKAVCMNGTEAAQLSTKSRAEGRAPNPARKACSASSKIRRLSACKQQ

[13] = molecular target: Serine/threonine-protein kinase PAK 5 (Homo sapiens) (UniProt Q9P286); experiment: Inhibition of human PAK5 at 500 nM by HotSpot assay relative to control
Sequence of Serine/threonine-protein kinase PAK 5 (Homo sapiens) (Q9P286 whole entry, looked up, canonical isoform): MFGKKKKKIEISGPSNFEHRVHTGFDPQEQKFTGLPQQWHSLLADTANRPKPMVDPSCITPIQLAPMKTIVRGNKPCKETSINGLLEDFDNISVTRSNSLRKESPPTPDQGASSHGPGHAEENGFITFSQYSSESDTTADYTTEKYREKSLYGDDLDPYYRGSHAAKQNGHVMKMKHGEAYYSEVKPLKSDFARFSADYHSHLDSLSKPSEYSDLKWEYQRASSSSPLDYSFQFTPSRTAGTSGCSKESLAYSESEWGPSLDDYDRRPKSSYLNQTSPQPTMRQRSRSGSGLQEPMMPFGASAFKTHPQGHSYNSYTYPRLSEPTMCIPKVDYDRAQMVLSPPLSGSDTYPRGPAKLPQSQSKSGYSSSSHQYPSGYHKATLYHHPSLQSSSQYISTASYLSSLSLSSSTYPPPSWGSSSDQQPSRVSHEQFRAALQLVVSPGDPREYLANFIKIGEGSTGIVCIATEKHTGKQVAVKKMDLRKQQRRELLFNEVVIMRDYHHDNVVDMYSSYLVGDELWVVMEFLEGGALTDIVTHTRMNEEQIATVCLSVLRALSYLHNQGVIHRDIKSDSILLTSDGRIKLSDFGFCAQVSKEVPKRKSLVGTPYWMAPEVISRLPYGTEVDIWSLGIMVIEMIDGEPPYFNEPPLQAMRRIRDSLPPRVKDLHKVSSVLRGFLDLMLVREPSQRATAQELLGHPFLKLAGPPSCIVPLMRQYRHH

[14] = molecular target: T2, Phosphorylase b kinase gamma catalytic chain, liver/testis isoform (Homo sapiens) (UniProt P15735); experiment: Inhibition of human PHKg2 at 500 nM by HotSpot assay relative to control
T2 sequence (whole entry): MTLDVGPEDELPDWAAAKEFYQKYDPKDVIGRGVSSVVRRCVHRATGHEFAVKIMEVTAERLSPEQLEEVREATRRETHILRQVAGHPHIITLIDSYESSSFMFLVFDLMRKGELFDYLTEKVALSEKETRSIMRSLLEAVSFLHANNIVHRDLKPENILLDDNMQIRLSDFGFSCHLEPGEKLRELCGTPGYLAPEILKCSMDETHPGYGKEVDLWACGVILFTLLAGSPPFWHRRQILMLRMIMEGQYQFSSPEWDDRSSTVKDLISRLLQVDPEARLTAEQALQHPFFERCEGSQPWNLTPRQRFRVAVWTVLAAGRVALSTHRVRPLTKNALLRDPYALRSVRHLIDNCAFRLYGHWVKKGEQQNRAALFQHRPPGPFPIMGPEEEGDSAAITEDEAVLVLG

[15] = molecular target: Protein kinase C beta type (Homo sapiens) (UniProt P05771); experiment: Inhibition of human PKCb2 at 500 nM by HotSpot assay relative to control
[16] = molecular target: RAF proto-oncogene serine/threonine-protein kinase (Homo sapiens) (UniProt P04049); experiment: Inhibition of human RAF1 at 500 nM by HotSpot assay relative to control
[17] = molecular target: T3, Tyrosine-protein kinase receptor TYRO3 (Homo sapiens) (UniProt Q06418); experiment: Inhibition of human SKY at 500 nM by HotSpot assay relative to control
T3 sequence (whole entry): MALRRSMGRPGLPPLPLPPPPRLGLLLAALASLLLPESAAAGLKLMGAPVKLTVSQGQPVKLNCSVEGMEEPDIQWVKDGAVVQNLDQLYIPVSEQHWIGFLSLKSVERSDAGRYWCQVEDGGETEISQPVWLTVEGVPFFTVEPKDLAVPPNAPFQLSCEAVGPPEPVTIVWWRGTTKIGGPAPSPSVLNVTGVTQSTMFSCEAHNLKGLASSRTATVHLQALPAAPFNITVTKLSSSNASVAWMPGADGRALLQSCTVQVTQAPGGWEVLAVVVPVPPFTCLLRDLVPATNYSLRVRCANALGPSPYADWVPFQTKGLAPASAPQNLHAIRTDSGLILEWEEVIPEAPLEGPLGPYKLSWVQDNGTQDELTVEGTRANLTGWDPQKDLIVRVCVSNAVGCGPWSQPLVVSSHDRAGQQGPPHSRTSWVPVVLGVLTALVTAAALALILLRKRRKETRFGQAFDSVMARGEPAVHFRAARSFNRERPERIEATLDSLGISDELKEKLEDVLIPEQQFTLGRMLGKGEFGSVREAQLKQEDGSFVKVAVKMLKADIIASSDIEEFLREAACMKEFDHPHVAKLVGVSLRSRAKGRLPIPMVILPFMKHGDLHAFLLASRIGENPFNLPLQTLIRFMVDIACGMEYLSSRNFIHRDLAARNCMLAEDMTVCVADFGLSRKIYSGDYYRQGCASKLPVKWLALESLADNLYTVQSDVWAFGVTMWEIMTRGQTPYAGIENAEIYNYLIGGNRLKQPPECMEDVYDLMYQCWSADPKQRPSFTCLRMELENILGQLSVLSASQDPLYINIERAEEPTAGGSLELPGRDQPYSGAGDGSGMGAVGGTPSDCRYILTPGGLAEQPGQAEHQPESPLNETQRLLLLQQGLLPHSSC

Sequence of Activin receptor type-1-like (Homo sapiens) (P37023 whole entry): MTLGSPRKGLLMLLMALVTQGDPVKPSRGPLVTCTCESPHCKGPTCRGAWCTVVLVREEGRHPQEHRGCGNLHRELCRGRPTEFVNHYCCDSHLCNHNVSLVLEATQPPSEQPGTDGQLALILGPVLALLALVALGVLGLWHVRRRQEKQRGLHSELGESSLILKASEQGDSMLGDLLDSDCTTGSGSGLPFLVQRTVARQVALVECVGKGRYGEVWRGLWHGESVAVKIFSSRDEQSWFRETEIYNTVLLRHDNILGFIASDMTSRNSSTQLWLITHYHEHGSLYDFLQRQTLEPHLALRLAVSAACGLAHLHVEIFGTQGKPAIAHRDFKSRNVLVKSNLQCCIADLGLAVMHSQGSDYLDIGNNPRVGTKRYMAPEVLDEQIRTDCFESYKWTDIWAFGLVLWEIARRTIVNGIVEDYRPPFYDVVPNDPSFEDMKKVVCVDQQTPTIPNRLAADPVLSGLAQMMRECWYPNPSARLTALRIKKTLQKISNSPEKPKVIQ

Compound `Oc1n[nH]c2nnc(-c3c(-c4ccccc4)nn4ccccc34)cc12` has an inhibition [1] of -0.63%, an inhibition [2] of -1.44% and an inhibition [3] of 4.83%. For the same compound, the inhibition [4] was -5.26%, the inhibition [5] was 0.01% and the inhibition [6] was 1.29%. The inhibition [7] was -1.06%, the inhibition [8] was 0.96% and the inhibition [9] was -0.52%. For the same compound, the inhibition [10] was 17.4%, the inhibition [11] was 11.7% and the inhibition [12] was 7.3%. It also gave an inhibition [13] of 11.6%, an inhibition [14] of 8.79% and an inhibition [15] of -2.98%. The inhibition [16] was 1.96% and the inhibition [17] was 10.1%.
Work on `Nc1n[nH]c2nnc(-c3c(-c4ccccc4)nn4ccccc34)cc12` yielded an inhibition [1] of -6.11%, an inhibition [2] of 0.88% and an inhibition [3] of 5.04%. For the same compound, the inhibition [4] was -2.07%, the inhibition [5] was -0.67% and the inhibition [6] was -0.57%. For the same compound, the inhibition [7] was 1.98%, the inhibition [8] was 0.55% and the inhibition [9] was 8.64%. For the same compound, the inhibition [10] was 9.19%, the inhibition [11] was 51.6% and the inhibition [12] was 8.15%. For the same compound, the inhibition [13] was 1.83%, the inhibition [14] was 17.4% and the inhibition [15] was 0.34%. It also gave an inhibition [16] of 4.42% and an inhibition [17] of 2.41%.
